17 molecules from patent US9725457B2, “6-amido derivatives of 4, 5-a epoxymorphinans for the treatment of pain” (Sloan-Kettering Institute for Cancer Research, priority 2010, dated 2017) can be followed below.

Structures are written as SMILES. Where two headings read alike, the source gives them in different places. Bounds are passed on as bounds.

In one assay the test system is mice. Kind of assay: Radiant heat tail flick analgesia assay. In kind it is in vivo. As to conditions: for ED50: Mus musculus, male CD-i mice, radiant heat tail-flick. The protocol: Tail Flick Analgesia Assays: Male CD-i mice (25-35 g; Charles River Breeding Laboratories, Wilmington, Mass.) were maintained on a 12-hr light/dark cycle with Purina rodent chow and water available ad libitum. Mice were housed in groups of five until testing. Analgesia was determined using the radiant heat tail-flick technique [D'Amour and Smith, J. Pharmacol. Exp. Ther. 72: 74-79 (1941)]. For the tail-flick assay, the latency to withdraw the tail from a focused light stimulus was measured electronically using a photocell. […] Post-treatment tail-flick latencies were determined as indicated for each experiment, and a maximal latency of 10 sec for tail-flick was used to minimize tissue damage. All experiments were replicated at least twice with each group in each experiment containing at least 10 mice and the combined results of all replications presented.

In assay [1] the target is T1, MOR (mu opioid receptor), MOR1-CHO (Mus musculus, UniProt P42866).
T1 construct: expressed in transfected cells; host or cells: CHO
Briefly: Competition binding in MOR-CHO, 125I-SMGP1 radioligand. The protocol: (§1) Receptor-Binding Assays: Competition-binding assays in MOR-CHO (mu), DOR-CHO (delta) and KOR-CHO (kappa) were performed at 25° C. in 50 mM potassium phosphate buffer, pH 7.4, containing 5 mM magnesium sulfate (only in the case of CHO-MOR). Specific binding was defined as the difference between total binding and nonspecific binding, determined in the presence of 8 μM levallorphan. 125I-SMGP1 (IBNtxA) was used as the universal radioligand to determine the relative affinity of drugs in MOR1-CHO, KOR1-CHO and DOR1-CHO. Protein concentrations were generally 20-40 μg/mL, incubation times were 90 minutes for all assays. (Majumdar et al., Bioorg Med Chem Lett. 2011, 21(13), 4001-4004). Kappa3 opioid receptor competition binding assays were carried out in whole brain membrane homogenates, performed at 25° C. in 50 mM potassium phosphate buffer, pH 7.4, containing 5 mM magnesium sulfate for 90 minutes in presence of 100 nM CTAP, 100 nM U50488h and 100 nM DPDPE. ^125I-SMGP1 was used as the radioligand in the assays, typically 500 micrograms of protein and 0.15 nM of the radioligand was used in a 0.5 mL assay. Specific binding was defined as the difference between total binding and nonspecific binding, determined in the presence of 8 μM levallorphan. Protein concentration was determined as described by Lowry et al. [J Biol Chem 1951, 193, 265-275; (1951)] using bovine serum albumin as the standard. Kd, Bmax, and Ki values were calculated by nonlinear regression analysis (GraphPadPrism). […] The “kappa3 opioid receptor” as referred to herein is the receptor first characterized by Clark et al. [J. Pharmacol. Exp. Ther. 251, 461-468 (1989)].

Assay [2] addresses T2, KOR (kappa opioid receptor), KOR1-CHO (Mus musculus, UniProt P33534).
T2 construct: expressed in transfected cells; host or cells: CHO
Kind of assay: Competition binding in KOR-CHO, 125I-SMGP1 radioligand. The protocol: as §1

For assay [3], the target named is T3, DOR (delta opioid receptor), DOR1-CHO (Mus musculus, UniProt P32300).
T3 construct: expressed in transfected cells; host or cells: CHO
Briefly: Competition binding in DOR-CHO, 125I-SMGP1 radioligand. The protocol:
Receptor-Binding Assays: Competition-binding assays in MOR-CHO (mu), DOR-CHO (delta) and KOR-CHO (kappa) were performed at 25° C. in 50 mM potassium phosphate buffer, pH 7.4, containing 5 mM magnesium sulfate (only in the case of CHO-MOR). Specific binding was defined as the difference between total binding and nonspecific binding, determined in the presence of 8 μM levallorphan. […] Protein concentrations were generally 20-40 μg/mL, incubation times were 90 minutes for all assays. […] Specific binding was defined as the difference between total binding and nonspecific binding, determined in the presence of 8 μM levallorphan. […] Kd, Bmax, and Ki values were calculated by nonlinear regression analysis (GraphPadPrism).

Where [4] appears, read: MOR-CHO, 125I-SMGP1, 25° C., 90 minutes, read-out: Ki (nM) MOR.
Where [5] appears, read: KOR-CHO, 125I-SMGP1, 25° C., 90 minutes, read-out: Ki (nM) KOR.
The mark [6] stands for this setting: DOR-CHO, 125I-SMGP1, 25° C., 90 minutes, read-out: Ki (nM) DOR.

Take `CN1CCC23c4c5ccc(O)c4OC2C(NC(=O)c2cccc(I)c2)CCC3(O)C1C5` (centres unmarked) [SMGP 2]: in the assay with mice, the 50% effective dose (ED50) is > 10 mg/kg.

With `C=CCN1CC[C@]23c4c5ccc(O)c4O[C@H]2[C@H](NC(=O)c2cccc(I)c2)CC[C@@]3(O)[C@H]1C5` [SMGP 3], the Ki in assay [1] (setting [4]) amounted to 0.22 nM; in assay [2] (setting [5]), 0.08 nM; in assay [3] (setting [6]), 2.55 nM. The 50% effect level in the assay with mice (ED50) was put at a dose of 0.57 mg/kg.

Take `C=CCN1CC[C@]23c4c5ccc(O)c4O[C@H]2[C@@H](NC(=O)c2cccc(I)c2)CC[C@@]3(O)[C@H]1C5` [SMGP 4]: the Ki came out at 5.07 nM in assay [1] (setting [4]), 12.2 nM in assay [2] (setting [5]) and 7.64 nM in assay [3] (setting [6]). The molecule further yielded a median effective dose (ED50) with mice of 5 mg/kg.

Regarding `O=C(NC1CCC2(O)C3Cc4ccc(O)c5c4C2(CCN3CC2CCC2)C1O5)c1cccc(I)c1` (centres unmarked) [SMGP 6], the values for the Ki in assay [1], in assay [2] and in assay [3] were 0.88 nM, 0.67 nM and 2.38 nM, respectively.

With `C=CCN1CCC23c4c5ccc(OC)c4OC2C(NC(=O)c2cccc(I)c2)CCC3(O)C1C5` (centres unmarked) [SMGP 8], the inhibitory constant (Ki) in assay [1], in assay [2] and in assay [3] was > 100 nM each time. Further, the ED50 with mice is > 10 mg/kg.

As for `C=CCN1CCC23c4c5ccc(O)c4OC2C(NC(=O)c2ccccc2I)CCC3(O)C1C5` (centres unmarked) [SMGP 16], the Ki amounted to 1.56 nM in assay [1], 1 nM in assay [2] and 22.8 nM in assay [3]. Besides, in the assay on mice, the ED50 was > 10 mg/kg.

Turning to `C=CCN1CCC23c4c5ccc(O)c4OC2C(NC(=O)c2ccc(I)cc2)CCC3(O)C1C5` (centres unmarked) [SMGP 17], the figures for the Ki in assay [1], in assay [2] and in assay [3] were 0.11 nM, 0.28 nM and 3.36 nM, respectively. Also, the ED50 in the assay with mice was found to be 0.16 mg/kg.

Consider `C=CCN1CCC23c4c5ccc(O)c4OC2C(NC(=O)c2cccc(F)c2)CCC3(O)C1C5` (centres unmarked) [SMGP 18], for which the Ki in assay [1] was 0.47 nM; in assay [2], 2.05 nM; in assay [3], 18.2 nM. The same molecule had a 50% effective dose (ED50) in the assay with mice of 3.24 mg/kg.

On to `C=CCN1CCC23c4c5ccc(O)c4OC2C(NC(=O)c2cccc(Cl)c2)CCC3(O)C1C5` (centres unmarked) [SMGP 19], for which the Ki was determined as 1.15 nM in assay [1], 0.52 nM in assay [2] and 4.87 nM in assay [3]. This molecule also showed a median effective dose (ED50) in the assay on mice of 2.3 mg/kg.

Take `C=CCN1CCC23c4c5ccc(O)c4OC2C(NC(=O)c2cccc(Br)c2)CCC3(O)C1C5` (centres unmarked) [SMGP 20]: the Ki worked out at 3.85 nM in assay [1], 1.58 nM in assay [2] and 23.4 nM in assay [3]. This molecule also returned an ED50 with mice of 1.36 mg/kg.

Regarding `C=CCN1CC[C@]23c4c5ccc(O)c4O[C@H]2[C@H](NC(=O)c2ccccc2)CC[C@@]3(O)[C@H]1C5` [SMGP 21], the Ki is 4.03 nM in assay [1] (setting [4]), 14.3 nM in assay [2] (setting [5]) and 60.8 nM in assay [3] (setting [6]). In the assay on mice, this molecule gave an ED50 of 5 mg/kg.

As to `C=CCN1CC[C@]23c4c5ccc(O)c4O[C@H]2[C@H](NC(=O)c2cccc(C)c2)CC[C@@]3(O)[C@H]1C5` [SMGP 22], the Ki in assay [1] (setting [4]) came to 0.29 nM; in assay [2] (setting [5]), 1.62 nM; in assay [3] (setting [6]), 8.24 nM. In the assay on mice, this molecule showed an ED50 of 2 mg/kg.

In the case of `C=CCN1CC[C@]23c4c5ccc(O)c4O[C@H]2[C@H](NC(=O)c2cccc(C(F)(F)F)c2)CC[C@@]3(O)[C@H]1C5` [SMGP 23], the Ki in assay [1] (setting [4]) is 0.85 nM; in assay [2] (setting [5]) it was 0.22 nM; in assay [3] (setting [6]), 2.96 nM. In the assay on mice, this molecule had an ED50 of 0.26 mg/kg.

On to `C=CCN1CCC23c4c5ccc(O)c4OC2C(NC(=O)c2ccc(-c4ccccc4)cc2)CCC3(O)C1C5` (centres unmarked) [SMGP 40], for which the Ki turned out to be 0.95 nM in assay [1] and 25.8 nM in assay [2]. In the assay on mice, this molecule showed an ED50 of 12.5 mg/kg.

Take `C=CCN1CCC23c4c5ccc(O)c4OC2C(NC(=O)CCCCC)CCC3(O)C1C5` (centres unmarked) [SMGP 55]: the Ki came to 9.5 nM in assay [1] and 9.15 nM in assay [2]. Further, the ED50 with mice is > 10 mg/kg.

Turning to `C=CCN1CCC23c4c5ccc(O)c4OC2C(NC(=O)CCCCCCCCCCC)CCC3(O)C1C5` (centres unmarked) [SMGP 56], the ED50 with mice was > 10 mg/kg.

For the molecule `C=CCN1CC[C@]23c4c5ccc(O)c4O[C@H]2C(=O)CC[C@@]3(O)[C@H]1C5` [naloxone, reference compound], the “reversal of the analgesia elicited by SMGP1 by an antagonist” value with mice (antagonist given against SMGP1 analgesia in mice) is “far less potent”.

As usually defined, the ED50 is the midpoint of the dose-response relation. Read a high ED50 as weaker potency. In general, Ki refers to the equilibrium dissociation constant of an inhibitor or competing ligand from its target.
